Results on 1 compound are retold here after patent publication US6946452B2, “Use of N-acetyl-D-glucosamine in the manufacture of pharmaceutical useful for treating motion sickness” (Third Military Medical University Chinese People's …, priority 2001, dated 2005).

For series [1] the following is noted: in vivo. The source says:
1. acute toxicity test: including tests of administrating medicine by oral, Intravenous injection and maximum limit amount for administration;
III. Observation of Curative Efficiency.

For series [2] the following is noted: in vivo. The source holds these as a separate data set.
Another series has as its system motion sickness. Description: Observation of curative efficiency in patients suffering from motion sickness. It is filed as in vivo. To be noted: for Not effective (number of persons) / Effective (number of persons): 20 persons; for Effective (number of persons): 100 km by car and by small steamboat. The protocol: 80 patients suffering from motion sickness were selected and randomly divided into four groups: a group to whom N-acetyl-D-glucosamine was administered in a long term (800 mg of NAG/person/day), a group to whom N-acetyl-D-glucosamine was administered in a short term (6000 mg of NAG/person/day), placebo group (6000 mg of glucose/person/day), a group to whom no medicament was administered. A double blind method was adopted, observing the curative efficiency for traveling 100 kilometers by car (its velocity was 20 kilometers/hour) and traveling 100 kilometers by a small steamboat. Compared with the situation before traveling by car, the following symptoms being relieved or removed will be judged to be effective: dizziness, nausea and vomiting.

For another series, the system named is Proteus Mirabilis. Description: Promoting wave test (bacterial bio-wave growth model). It is filed as cell-based. Particulars: final concentration of 0.5% on LB plate, 37° C., compared with control. The source says: I. Promoting Wave Test of N-acetyl-D-glucosamine
1. Experimental Materials and Method:
1.1 Samples: Pure Compound of Formula (I)
1.2 Experimental Materials: • Strain: Proteus Mirabilis (which should comply with the following biological reaction characteristics: dynamics (+), urease (+), lactose (−), glucose (+), H2S (−), phenylalanine deaminase (+). • Culture medium: modified LB culture medium (the components of the composition are: trytones of 1%, yeast extract of 0.5%, sodium chloride 1%, glucose of 0.1%, TTC of 0.002% and pH=7.2˜7.4).
2. Experimental Results and Evaluation: • The experiment adopts a bio-wave model which is used to research the promoting wave function of N-acetyl-D-glucosamine. […] II. Toxicological Test of the Compound of Formula (I), including: […]

The mark [3] stands for this setting: long term group, 800 mg of NAG/person/day.
[4] abbreviates: short term group, 6000 mg of NAG/person/day.

With `CC(=O)N[C@H]1C(O)O[C@H](CO)[C@@H](O)[C@@H]1O` (stereo partly drawn) [N-acetyl-D-glucosamine], in series [1], the “dosage at which acute toxicosis reaction had not appeared” value is “more than 2 g/kg”. In series [2], the “maximum dosage with no toxicosis reaction” value is recorded as 1 g/kg. Besides, in the series with motion sickness (setting [3]), the “Not effective (number of persons)” value came out at 2 and the “Effective (number of persons)” value is 18. Also, in the series with motion sickness (p<0.05 vs placebo group and no-administration group), the “effectivity of preventing and treating motion sickness” value was “more than 90%”. Further, in the series with motion sickness (setting [4]), the “Not effective (number of persons)” value was 1 and the “Effective (number of persons)” value was 19. Further, in the series with Proteus Mirabilis, the “promoting wave function (concentric ring pattern on LB plate)” value is reported as “many fine waves on each ring emerged”.
